Experimental data as given in article PMC12188386, “Selective CBP/EP300 Bromodomain Inhibitors: Novel Epigenetic Tools to Counter TNF-α-Driven Inflammation” (JACS Au, 2025).

Experiments:
Assay in all cases: NCI-60 one-dose screen
Type in all cases: cell-based, human
[1] = test system: 786-0; details: 10 µM, 48 h, Renal Cancer
Description: (§1) Adapted from NCI-60 Screening Methodology, one-dose screen:20 Briefly, human tumor cell lines, grown in RPMI 1640 containing 5% FBS and 2 mM L-glutamine, were plated in 96 well plates at densities ranging from 5,000 to 40,000 cells/well 24 h prior to addition of test compounds (here 10 μM 2). 400x solutions of test compounds were prepared in DMSO, then diluted to 2x in medium supplemented with 50 μg/mL gentamicin. 100 μl of this 2x stock was added to cells previously plated in 100 μl medium, resulting in the desired final compound concentration. Cells were fixed in situ with cold TCA: untreated cells at the time of compound addition (Tz) and treated cells 48 h after addition of compound (Ti). Cells were washed, then su f rh damine s uti n μ at . w/v in acetic acid was added to each well and incubated for 10 minutes at room temperature. After washing again, the plates were air dried and bound stain solubilized with 10 mM Trizma base before absorbance was […]
(§2) Percentage growth (%Growth) was calculated as follows:
(§3) when Ti ≥ Tz, %Growth = Ti − Tz x 100 where Ti = absorbance from compound treated cells, Tz = absorbance from untreated cells at time zero, and C = absorbance from control (DMSO) treated cells. […]

[2] = test system: CAKI-1; details: 10 µM, 48 h, Renal Cancer
Description: as §1, §2, §3

[3] = test system: CCRF-CEM; details: 10 µM, 48 h, Leukemia, relative to no-drug control and time zero
Description: as §1, §2, §3

[4] = test system: COLO 205; details: 10 µM, 48 h, Colon Cancer
Description: as §1, §2, §3

[5] = test system: DU-145; details: 10 µM, 48 h, Prostate Cancer
Description: as §1, §2, §3

[6] = test system: HCC-2998; details: 10 µM, 48 h, Colon Cancer
Description: as §1, §2, §3

[7] = test system: HCT-116; details: 10 µM, 48 h, Colon Cancer
Description: as §1, §2, §3

[8] = test system: HCT-15; details: 10 µM, 48 h, Colon Cancer
Description: as §1, §2, §3

[9] = test system: HOP-62; details: 10 µM, 48 h, Non-Small Cell Lung Cancer
Description: as §1, §2, §3

[10] = test system: K-562; details: 10 µM, 48 h, Leukemia
Description: as §1, §2, §3

[11] = test system: KM12; details: 10 µM, 48 h, Colon Cancer
Description: as §1, §2, §3

[12] = test system: LOX IMVI; details: 10 µM, 48 h, Melanoma
Description: as §1, §2, §3

[13] = test system: M14; details: 10 µM, 48 h, Melanoma
Description: as §1, §2, §3

[14] = test system: MDA-MB-231/ATCC; details: 10 µM, 48 h, Breast Cancer
Description: as §1, §2, §3

[15] = test system: MDA-MB-435; details: 10 µM, 48 h, Melanoma, values <0 indicate lethality
Description: as §1, §2, §3

[16] = test system: MDA-MB-468; details: 10 µM, 48 h, Breast Cancer, values <0 indicate lethality
Description: as §1, §2, §3

[17] = test system: NCI-H226; details: 10 µM, 48 h, Non-Small Cell Lung Cancer
Description: as §1, §2, §3

[18] = test system: NCI-H322M; details: 10 µM, 48 h, Non-Small Cell Lung Cancer
Description: as §1, §2, §3

[19] = test system: NCI-H522; details: 10 µM, 48 h, Non-Small Cell Lung Cancer
Description: as §1, §2, §3

[20] = test system: OVCAR-4; details: 10 µM, 48 h, Ovarian Cancer
Description: as §1, §2, §3

[21] = test system: RPMI-8226; details: 10 µM, 48 h, Leukemia
Description: as §1, §2, §3

[22] = test system: SF-268; details: 10 µM, 48 h, CNS Cancer
Description: as §1, §2, §3

[23] = test system: SF-539; details: 10 µM, 48 h, CNS Cancer
Description: as §1, §2, §3

[24] = test system: SK-MEL-2; details: 10 µM, 48 h, Melanoma
Description: as §1, §2, §3

[25] = test system: SK-MEL-5; details: 10 µM, 48 h, Melanoma, values <0 indicate lethality
Description: as §1, §2, §3

[26] = test system: SK-OV-3; details: 10 µM, 48 h, Ovarian Cancer
Description: as §1, §2, §3

[27] = test system: SN12C; details: 10 µM, 48 h, Renal Cancer
Description: as §1, §2, §3

[28] = test system: SNB-19; details: 10 µM, 48 h, CNS Cancer
Description: as §1, §2, §3

[29] = test system: SW-620; details: 10 µM, 48 h, Colon Cancer
Description: as §1, §2, §3

[30] = test system: T-47D; details: 10 µM, 48 h, Breast Cancer
Description: as §1, §2, §3

[31] = test system: U251; details: 10 µM, 48 h, CNS Cancer
Description: as §1, §2, §3

[32] = test system: UACC-257; details: 10 µM, 48 h, Melanoma
Description: as §1, §2, §3

[33] = test system: HL-60(TB); details: 10 µM, 48 h, Leukemia
Description: compounds with known characteristics were included as controls. Quantification of test and control compounds was performed by LC-MS/MS using an 8-point calibration curve under Cyprotex standard analytical conditions. The initial concentration (C0) at time zero was determined from the dosing solution, and recovery was calculated based on concentrations […]
The apparent permeability coefficient (Papp) is calculated from the equation (where dQ/dt is the drug permeation rate across the cells, C0 is the concentration in the donor compartment at time zero, and A is the area of the cell monolayer):
Efflux ratio (ER) is calculated from mean A-B and B-A data: […]
Adapted from NCI-60 Screening Methodology, one-dose screen:20 Briefly, human tumor cell lines, grown in RPMI 1640 containing 5% FBS and 2 mM L-glutamine, were plated in 96 well plates at densities ranging from 5,000 to 40,000 cells/well 24 h prior to addition of test compounds (here 10 μM 2). […] After washing again, the plates were air dried and bound stain solubilized with 10 mM Trizma base before absorbance was […]
as §2, §3

Structure (SMILES): Cc1cc2c(NC(=O)c3cc(NC(=O)c4ccco4)cc(-c4ccn(C)n4)c3)cccc2nn1 [Compound 2]
- %Growth [1]: 57%
- %Growth [2]: 22%
- %Growth [3]: 43%
- %Growth [4]: 32%
- %Growth [5]: 87%
- %Growth [6]: 66%
- %Growth [7]: 38%
- %Growth [8]: 64%
- %Growth [9]: 67%
- %Growth [10]: 29%
- %Growth [11]: 28%
- %Growth [12]: 34%
- %Growth [13]: 25%
- %Growth [14]: 57%
- %Growth [15]: -47%
- %Growth [16]: -19%
- %Growth [17]: 49%
- %Growth [18]: 86%
- %Growth [19]: 3%
- %Growth [20]: 63%
- %Growth [21]: 32%
- %Growth [22]: 72%
- %Growth [23]: 44%
- %Growth [24]: 18%
- %Growth [25]: -36%
- %Growth [26]: 86%
- %Growth [27]: 63%
- %Growth [28]: 66%
- %Growth [29]: 52%
- %Growth [30]: 44%
- %Growth [31]: 61%
- %Growth [32]: 66%
- %Growth [33]: 25%
